Results published in patent publication US9629869B2, “Application of fructus schisandrae total polysaccharides in preparatoin of medicine or nutraceuticals used for treating coughing” (priority 2014, dated 2017).

Legend:
Format in all cases: in vivo, guinea pig
[1] = test system: guinea pigs with increased cough sensitivity induced by cigarette smoke; test: Citric acid cough stimulation of guinea pigs with increased cough sensitivity induced by cigarette smoke (Embodiment I); conditions: 30 mg/kg oral once, one hour before citric acid check, x ± s, n = 7-10
Experimental: Experimental animals used in the specific embodiments are ordinary male pure white Hartly guinea pigs each with a weight of 300±50 g which are supplied by the Laboratory Animal Center of Guangdong Province (SCXK (Guang) 2008-0002). The guinea pigs are raised in a relatively clean and quiet environment with constant temperature (23±3° C.) and constant humidity (55±15%); the diurnal cycle is 12:12 h/day; and the guinea pigs are raised in different cages, and every five guinea pigs are raised in one cage and can obtain food and water freely. […]
Except for the normal group, animals in other groups are respectively stimulated by adopting the smoking method described in the above 1.1. […] The guinea pigs are placed in a plethysmogrophy box at the 15th day; two minutes later, 0.4 mol/L citric acid aqueous solution is atomized to perform the cough stimulation, and the atomizing is ended in 10 minutes; the guinea pigs are continuously observed for 10 minutes; and the coughing times and coughing latent period of the guinea pigs in 20 minutes after the atomizing is started are recorded.

[2] = test system: BALF inflammatory cells of guinea pigs with increased cough sensitivity induced by cigarette smoke; test: Total number and classification of BALF inflammatory cells, cigarette smoke guinea pigs (Embodiment I); conditions: codeine group 30 mg/kg oral once, n = 7-10
Experimental: 1.1 Smoking method: prior to the experiment, after being adaptively raised quietly for one week, the guinea pigs are placed in a self-made cigarette poisoning box; ten cigarettes are fired every time and placed in a smoking trough (flume-cured tobacco type, content of tar is 12 mg, content of nicotine in smoke is 1.1 mg, and content of carbon oxide in the smoke is 15 mg); and the cigarette smoke is led into the poisoning box by three-way valve, and the timing is started after the cigarette is burnt out. The guinea pigs are smoked for 20 minutes every time and twice a day; and the smoking interval time between two adjacent smoking is greater than 6 h; and the guinea pigs are consecutively smoked for 14 days.
The guinea pigs are randomly divided into a normal group, a model group, a solvent reference group (0.5% PEG400), a codeine group, a water extract high dose group (dose: 500 mg/kg guinea pig/day: drug concentration: […]), a total polysaccharides high dose group (dose: 500 mg/kg guinea pig/day; drug concentration: 50 mg/mL), a total polysaccharides middle dose group (dose: 250 mg/kg guinea pig/day; drug concentration: 25 mg/mL) and a total polysaccharides low dose group (dose: 125 mg/kg guinea pig/day, drug concentration: 12.5 mg/mL).
Except for the normal group, animals in other groups are respectively stimulated by adopting the smoking method described in the above 1.1. Except for the normal group and the codeine group, the guinea pigs in the other groups are orally given with the corresponding drugs or solvent two hours before the second smoking for 14 consecutive days from the first day of smoking. The guinea pigs of the codeine group is orally administrated (30 mg/kg guinea pig; the codeine concentration: 3 mg/mL) one hour before the citric acid cough sensitivity check. The guinea pigs of the normal group are normally raised without any treatment. The guinea pigs are placed in a plethysmogrophy box at the 15th day; two minutes later, 0.4 mol/L citric acid aqueous solution is atomized to perform the cough stimulation, and the atomizing is ended in 10 minutes; the guinea pigs are continuously observed for 10 minutes; and the coughing times and coughing latent period of the guinea pigs in 20 minutes after the atomizing is started are recorded.
Intraperitoneal injection with 3% pentobarbital sodium solution (1 mL/kg) is performed to anesthetize the animal in 24 hours after the cough stimulation test, and 10 mL of blood is taken from the heart of the animal. The bronchoalveolar lavage fluid (BALF) is obtained by taking 6 mL of 0.1 mol/L pre-cooled PBS buffer solution, performing the bronchoalveolar lavage for three times, and uniformly lavaging the left lung repeatedly for three times. […]

[3] = test system: acute cough guinea pigs induced by citric acid smoke; test: Acute cough of guinea pigs induced by citric acid smoke, five days of dosing (Embodiment II); conditions: 30 mg/kg oral once, one hour before stimulation at fifth day, x ± s, n = 8
Experimental: After the guinea pigs are quietly raised for one week, the cough sensitivity screening is carried out: the guinea pigs is stimulated for one minute by atomizing 0.8 mol/L citric acid and continuously observed for five minutes; the coughing times of the guinea pigs in 6 minutes after the atomizing is started is recorded; and the guinea pigs with the coughing times greater than 10 times and less than 50 times are the qualified guinea pigs. […]
Except for the normal group and the codeine group, the guinea pigs in the rest groups are orally given with drugs or solvent consecutively for five days and once a day; and the citric acid cough stimulation is carried out in one hour after the guinea pigs are given with the drug or solvent at the fifth day: the guinea pigs are stimulated for one minute by atomizing 0.8 mol/L citric acid and are continuously observed for 5 minutes after the atomizing is stopped, and the coughing times of the guinea pigs in 6 minutes after the atomizing is started is recorded. […]

[4] = test system: citric acid smoke stimulation-caused guinea pigs; test: Coughing times of citric acid smoke stimulated guinea pigs at different time points after one dose (Embodiment III); conditions: 5 hours after one oral dose of 30 mg/kg; FIG. 2
Experimental: After the guinea pigs are quietly raised for one week, the cough sensitivity is screened: the guinea pigs are stimulated for one minute by atomizing 0.8 mol/L citric acid and continuously observed for five minutes after the atomizing is stopped; the coughing times of the guinea pigs in 6 minutes after the atomization is started is recorded; and the guinea pigs with the coughing times greater than 10 times and less than 50 times are the qualified guinea pigs.
The qualified guinea pigs are selected to be normally raised for three days and randomly divided into four groups with 30 guinea pigs in each group. The guinea pigs in the first group are divided into three subgroups with 10 guinea pigs in each subgroup, and all guinea pigs are directly under the citric acid cough stimulation: the guinea pigs are stimulated for one minute by atomizing 0.8 mol/L citric acid and are continuously observed for 5 minutes after the atomization is stopped, and the coughing times of the guinea pigs in 6 minutes after the atomization is started is recorded. […]

**Q.** What does the source list for `COc1ccc2c3c1O[C@H]1[C@@H](O)C=C[C@H]4[C@@H](C2)N(C)CC[C@@]341` [Codeine]?
**A.** Coughing times ([1]; 0.4 mol/L citric acid, day 15, 20 min count): 37.29 ± 11.64; Coughing latent period ([1]; day 15): 186.14 ± 45.27 s; Eos % ([2]; BALF eosinophils, mean): 4.25%; Lym % ([2]; BALF lymphocytes, mean): 3.64%; Mac % ([2]; BALF macrophages, mean): 43.86%; Neu % ([2]; BALF neutrophils, mean): 48.10%; total number of cells * 10^6/mL ([2]; BALF, x ± s): 2.13 ± 0.38 10^6/mL; Coughing times ([3]; 0.8 mol/L citric acid, 6 min count): 3.83 ± 1.94; Coughing latent period [3]: 115.3 ± 20.18 s; coughing times compared with the normal group [4]: no significant difference
